# Measurements as given in patent US5310659A, “GL-7ACA acylase” (priority 1990, dated 1994).
# Like-named read-outs stand apart in the source and are kept apart here.
# Columns and labels:
# [1] = molecular target: T1, GL-7ACA acylase J1 of Bacillus laterosporus J1 (SEQ ID NO: 3), purified from recombinant E. coli (Brevibacillus laterosporus, UniProt Q45289); test: Inhibition by reaction products (competitive), Ki determination by HPLC assay; assay type: biochemical; conditions: substrate GL-7ACA, 37° C.
# T1 sequence (Q45289 entry or part of it): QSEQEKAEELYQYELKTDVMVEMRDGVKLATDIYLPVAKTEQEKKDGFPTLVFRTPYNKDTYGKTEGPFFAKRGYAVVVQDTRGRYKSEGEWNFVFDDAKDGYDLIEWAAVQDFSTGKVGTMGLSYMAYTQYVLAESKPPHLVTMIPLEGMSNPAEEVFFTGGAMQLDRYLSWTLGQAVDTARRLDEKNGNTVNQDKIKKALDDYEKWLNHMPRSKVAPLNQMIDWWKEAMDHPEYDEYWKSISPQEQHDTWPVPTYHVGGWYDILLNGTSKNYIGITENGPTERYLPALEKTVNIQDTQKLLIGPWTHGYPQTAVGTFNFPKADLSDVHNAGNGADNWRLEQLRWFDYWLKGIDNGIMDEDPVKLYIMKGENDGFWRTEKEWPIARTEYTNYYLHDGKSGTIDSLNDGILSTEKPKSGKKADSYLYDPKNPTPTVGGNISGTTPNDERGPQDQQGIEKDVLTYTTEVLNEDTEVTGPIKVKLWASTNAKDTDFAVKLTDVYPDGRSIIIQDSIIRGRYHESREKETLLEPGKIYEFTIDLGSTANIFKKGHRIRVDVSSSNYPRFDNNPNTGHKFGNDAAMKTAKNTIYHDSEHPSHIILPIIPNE
# Description: Inhibitory activity of reaction products, namely 7-ACA and glutaric acid on the enzyme activity of GL-7ACA acylase J1 was examined. The enzyme activity was assayed in the presence of various concentrations of 7-ACA or glutaric acid. For determination of Ki of 7-ACA, reaction mixture (200 μl) containing 20 μmole of glycine buffer (pH 9), 0.39-2.0 μmole of GL-7ACA, 0.3-0.48 μmole of 7-ACA and 11 μg of enzyme was used and the reaction was performed at 37° C. for 6 min. For determination of Ki of glutaric acid, reaction mixture (200 μl) containing (a) 20 μmole of glycine buffer (pH 9), 0.26-3.0 μmol of GL-7ACA, 2-10 μmol of glutaric acid and 11 μg of the enzyme (b) 20 μmol of Tris-HCl buffer (pH 8), 0.05-1.0 μmol of GL-7ACA, […] of glutaric acid and 5 μg of the enzyme was used. The reaction was performed at 37° C. for 3 min. […] Ki values were calculated from the apparent Michaelis constants (Kmapp), Km and Vmax. Ki values of 7-ACA was 2.0 mM.
# [2] = molecular target: T1, GL-7ACA acylase J1 of Bacillus laterosporus J1 (SEQ ID NO: 3), purified from recombinant E. coli; test: biochemical; conditions: for Relative activity (%): enzyme treated 37° C. 3 hours in 0.1 M Tris-HCl (pH 8), residual activity vs blank-treated enzyme, substrate GL-7ACA
# Description: Effect of p-chloromercuribenzoate (pCMB, Sigma Chemical Co., Ltd.), phenylmethylsulfonyl fluoride (PMSF, Sigma) and ethylenediaminetetraacetic acid (EDTA, Nacalai Tesque Inc., Japan) on the activity of GL-7ACA acylase J1 was examined as follows. Eleven μg of GL-7ACA acylase J1 was treated at 37° C. for 3 hours with 1.0 or 5.0 mM pCMB, 1.0 or 5.0 mM PMSF, or 1.0 or 5.0 mM EDTA in 200 μl of 0.1 M Tris-HCl buffer (pH 8). Residual activity of the treated enzyme was assayed by adding 22 μl of GL-7ACA (20 mg/ml) as a substrate to the mixture. The reaction was performed at 37° C for 10 min. Residual activity was expressed as a percentage compared to the activity of the enzyme treated with blank solution.
# [3] = tested on: CC(=O)OCC1=C(C(=O)O)N2C(=O)C(NC(=O)CCCC(=O)O)[C@H]2SC1; test: Michaelis-Menten kinetics of GL-7ACA hydrolysis, HPLC assay, Lineweaver-Burk plot; assay type: biochemical, Bacillus laterosporus J1; conditions: 37° C., 2 min
# Description: Transformant colonies were picked up and grown overnight at 30° C. in 1 ml of 2% Bouillon (Eiken Chemical Co., Ltd., Japan) supplemented with 1 mM […] (IPTG; Sigma Chemical Co., Ltd., U.S.A.). Cells were harvested by centrifugation and resulting cell pellets were used for assay. Reaction mixture (200 μl ) containing 100 mM phosphate buffer (pH 8), 2 mg of GL-7ACA and cell pellets were thoroughly mixed and incubated for 10 min at 37° C. The reaction was terminated by the addition of 200 μl of 4% acetic acid. Samples were applied to a Inertsil ODS-2 column (4.6 mm × 150 mm) (Gasukuro Kogyo Co., Ltd., Japan) and elution was performed with 0.567 g/l of Na2 HPO4, 0.36 g/l of KH2 PO4 and 2-4% methanol. 7ACA was detected with absorption at 254 nm.
# The activity of the GL-7ACA acylase J1 was determined by HPLC assay. […] Specific enzyme activity was expressed as unit per mg of protein. Protein concentrations were determined by Bio-Rad protein assay kit (Bio-Rad Co., Ltd., U.S.A.) with bovine serum albumin as a standard. Maximum specific enzyme activity (Vmax) and Michaelis constant (Km) were calculated from slope and intersection which were obtained by Lineweaver-Burk plot (Cf. M. Dixon and E. C. Webb, Enzymes, Longmans, London, 1958). […]
# [4] = pH 8, read-out: Relative activity (%)
compound,measurement,setting,value
"CC(=O)OCC1=C(C(=O)O)N2C(=O)C(N)C2SC1 (centres unmarked) [7-ACA, 7-aminocephalosporanic acid]",Ki,"[1]; glycine buffer (pH 9), 6 min, read-out: Ki of 7-ACA",2000 µM
"O=C(O)c1cc[c]([Hg][Cl])cc1 [pCMB, p-chloromercuribenzoate]",Relative activity (%),[2]; inhibitor 1 mM,106%
same,Relative activity (%),[2]; inhibitor 5 mM,104%
"GL-7ACA acylase J1 of Bacillus laterosporus J1 (SEQ ID NO: 3), purified from recombinant E. coli (Brevibacillus laterosporus)",Km,"[3]; other: 100 mM Tris-HCl buffer (pH 8), 0.16-5 mM GL-7ACA, pH 8.0",140 µM
same,Km,"[3]; other: 100 mM glycine buffer (pH 9), 1.4-20 mM GL-7ACA, pH 9.0",3200 µM
"O=S(=O)(F)Cc1ccccc1 [PMSF, phenylmethylsulfonyl fluoride]",Relative activity (%),[2]; inhibitor 1 mM,90%
same,Relative activity (%),[2]; inhibitor 5 mM,78%
O=C(O)CCCC(=O)O [glutaric acid],Ki,"[1]; 0.1M Tris-HCl buffer (pH 8), 3 min, read-out: Ki of glutaric acid",990 µM
same,Ki,"[1]; 0.1M glycine buffer (pH 9), 3 min, read-out: Ki of glutaric acid",53000 µM
"O=C(O)CN(CCN(CC(=O)O)CC(=O)O)CC(=O)O [EDTA, ethylenediaminetetraacetic acid]",activity at 1000 µM,[2]; [4],100%
same,activity at 5000 µM,[2]; [4],102%
